Measured values taken from US6310065A, “Pyridazinone hydrochloride compound and method for producing the same” (Nissan Chemical Industries, Ltd., priority 1998, dated 2001).
Counter-ions that a name gives are not always drawn.

How the values were obtained:
[1] = Physical properties and stability of the hydrochlorides, stated in words
[2] = Hygroscopic test under conditions of 25° C. and 75% RH (Test Example 1); format: physicochemical
Method: Hygroscopic test of 2-hydrochloride and 3/2-hydrochloride under conditions of 25° C. and 75% RH
A humidity conditioning solution was prepared by using a saturated aqueous solution of sodium chloride, and the solution thus prepared was placed in a humidistat, and temperature-moisture conditions at 25° C. were adjusted. 0.4 g of 2-hydrochloride and 0.2 g of 3/2-hydrochloride were weighed respectively in a weighing bottle to prepare test samples, and the test samples were subjected to hygroscopic test under the above adjusted temperature-moisture conditions to measure a water content and a decomposed material content as a lapse of time and to compare hygroscopicity and stability of the test samples.

[3] = Pharmaceutical effect, stated in words
[4] = Comparison of biological dynamics in a dog, 10 mg/kg oral administration by capsules; format: in vivo; settings: for AUC (0-.infin.) / Cmax: 10 mg/kg oral administration by capsules, 10 mg/kg
Method: Further, the compound (1) and its 3/2-hydrochloride (2) were compared with regard to biological dynamics in a dog. […] Result: (10 mg/kg oral administration by capsules)

[5] = 10 mg/kg oral by capsules, ratio to compound (1)

Compound | electrostatic charging of the crystal [1] | hygroscopicity [1] | solubility [1] | Water content ([2]; Time 0) [%] | Water content ([2]; Time 1) [%] | Increased decomposed material content ([2]; Time 24) [%] | Water content ([2]; Time 24) [%] | Increased decomposed material content ([2]; Time 48) [%] | Water content ([2]; Time 48) [%] | degraded ([2]; solid, 75% rh, Time 1, read-out: Increased decomposed material content) [%] | decomposition in a methanol solvent ([1]; methanol solvent) | pharmaceutical effect [3] | AUC (0-.infin.) [4] [ng·h/mL] | Cmax [4] [ng/mL] | area under the curve (AUC) of time-concentration in blood (0-.infin.), times more preferable as compared with the compound (1) [4, 5] [times] | maximum concentration in blood (Cmax), times higher as compared with the compound (1) [4, 5] [times] | Increased decomposed material content ([2]; Time 1) [%]
COc1ccc(CNc2cn[nH]c(=O)c2Cl)cc1OCC(=O)N1CCN(Cc2ccccc2)CC1 [1-hydrochloride] | easily electrostatically charged | high hygroscopicity | poor in solubility | – | – | – | – | – | – | – | – | – | – | – | – | – | –
COc1ccc(CNc2cn[nH]c(=O)c2Cl)cc1OCC(=O)N1CCN(Cc2ccccc2)CC1 [2-hydrochloride, 2-Hydrochloride of 4-chloro-5-[3-(4-benzylpiperazin-1-yl)carbonylmethoxy-4-methoxybenzylamino]-3 (2H) -pyridazinone] | – | highly hygroscopic | – | 0.93 | 4.17 | 1.75 | 5.60 | 11.78 | 9.45 | 0.08 | rapidly decomposed in a methanol solvent | excellent pharmaceutical effect | – | – | – | – | –
COc1ccc(CNc2cn[nH]c(=O)c2Cl)cc1OCC(=O)N1CCN(Cc2ccccc2)CC1 [Compound 1, 4-chloro-5-[3-(4-benzylpiperazin-1-yl)carbonylmethoxy-4-methoxybenzylamino]-3(2H)-pyridazinone] | – | – | – | – | – | – | – | – | – | – | – | – | 844.3 | 249.7 | – | – | –
COc1ccc(CNc2cn[nH]c(=O)c2Cl)cc1OCC(=O)N1CCN(Cc2ccccc2)CC1 [Compound 2, 3/2-Hydrochloride of 4-chloro-5-[3-(4-benzylpiperazin-1-yl)carbonylmethoxy-4-methoxybenzylamino]-3 (2H) -pyridazinone] | – | – | – | 2.03 | 2.42 | 0.17 | 2.34 | 0.18 | 2.57 | – | – | equivalent to that of 2-hydrochloride | 1998.3 | 1349.0 | 2.3 | 5.4 | 0.06
